Source: patent US12275731B2, “Azaindole inhibitors of wild-type and mutant forms of LRRK2” (DANA-FARBER CANCER INSTITUTE, INC., priority 2018, dated 2025)

Legend:
Experiment in all cases: KinomeScan profiling
Format in all cases: binding
AURKA = molecular target: T1, AURKA (Homo sapiens, UniProt O14965); conditions: read-out: % control
T1 construct: purchased KinomeScan®
T1 sequence (O14965 1-403): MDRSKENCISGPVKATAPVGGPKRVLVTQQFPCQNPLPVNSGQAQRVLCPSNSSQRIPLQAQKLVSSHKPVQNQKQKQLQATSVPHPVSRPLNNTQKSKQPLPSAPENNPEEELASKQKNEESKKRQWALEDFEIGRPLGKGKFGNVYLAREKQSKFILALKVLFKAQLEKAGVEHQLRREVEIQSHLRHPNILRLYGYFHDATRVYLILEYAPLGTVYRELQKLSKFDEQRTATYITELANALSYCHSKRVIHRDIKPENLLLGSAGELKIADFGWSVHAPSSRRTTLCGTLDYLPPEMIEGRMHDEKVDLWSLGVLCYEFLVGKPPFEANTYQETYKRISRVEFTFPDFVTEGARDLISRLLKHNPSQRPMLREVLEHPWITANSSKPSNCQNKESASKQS
Outline: (§1)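 At 1 μM in DMSO, compounds are run through a broad 468-member kinase panel. The luminescent read-out is normalised so that vehicle gives 100% and a positive control gives 0%; any kinase falling below 35% is treated as a target.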

DMPK2 = DMPK2 (Homo sapiens, UniProt Q6DT37); conditions: DMPK2, 1 μM; read-out: % control
Outline: as §1

EGFR(L858R) = EGFR(L858R) (Homo sapiens, UniProt P00533, L858R); conditions: read-out: % control
Outline: as §1

EGFR(L861Q) = EGFR(L861Q) (Homo sapiens, UniProt P00533, L861Q); conditions: read-out: % control
Outline: as §1

EPHB2 = molecular target: T2, EPHB2 (Homo sapiens, UniProt P29323); conditions: EPHB2, 1 μM; read-out: % control
T2 sequence (P29323 19-1055): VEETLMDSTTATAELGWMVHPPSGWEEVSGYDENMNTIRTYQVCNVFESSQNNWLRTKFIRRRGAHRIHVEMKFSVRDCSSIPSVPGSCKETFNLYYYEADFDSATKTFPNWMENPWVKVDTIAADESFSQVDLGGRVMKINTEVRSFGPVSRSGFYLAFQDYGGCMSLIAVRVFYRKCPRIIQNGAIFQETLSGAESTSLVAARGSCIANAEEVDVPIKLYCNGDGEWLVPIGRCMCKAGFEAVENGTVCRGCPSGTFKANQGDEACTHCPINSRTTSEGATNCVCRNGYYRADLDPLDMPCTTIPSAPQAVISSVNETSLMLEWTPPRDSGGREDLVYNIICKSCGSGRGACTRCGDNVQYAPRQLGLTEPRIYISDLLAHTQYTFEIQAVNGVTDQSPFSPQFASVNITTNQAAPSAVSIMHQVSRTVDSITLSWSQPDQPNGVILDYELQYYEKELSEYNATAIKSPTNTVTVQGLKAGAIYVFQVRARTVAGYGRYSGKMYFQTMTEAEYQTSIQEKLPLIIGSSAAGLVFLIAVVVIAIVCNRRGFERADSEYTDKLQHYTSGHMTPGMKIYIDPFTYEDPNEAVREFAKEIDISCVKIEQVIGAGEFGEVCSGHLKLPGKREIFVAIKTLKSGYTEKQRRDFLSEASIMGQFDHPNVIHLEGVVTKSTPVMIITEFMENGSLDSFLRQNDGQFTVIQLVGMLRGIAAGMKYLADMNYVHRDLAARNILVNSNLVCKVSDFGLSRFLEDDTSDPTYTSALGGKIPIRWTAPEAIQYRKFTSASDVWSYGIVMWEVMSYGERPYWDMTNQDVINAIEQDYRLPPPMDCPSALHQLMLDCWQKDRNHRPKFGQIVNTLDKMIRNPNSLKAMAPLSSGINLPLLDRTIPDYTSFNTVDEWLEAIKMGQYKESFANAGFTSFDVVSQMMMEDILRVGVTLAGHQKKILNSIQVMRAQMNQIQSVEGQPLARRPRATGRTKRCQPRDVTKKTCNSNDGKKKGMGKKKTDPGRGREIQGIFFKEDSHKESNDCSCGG
Outline: as §1

FES = FES (Homo sapiens, UniProt P07332); conditions: read-out: % control
Outline: as §1

JNK1 = molecular target: T3, JNK1 (Homo sapiens, UniProt P45983); conditions: JNK1, 1 μM; read-out: % control
T3 construct: purchased KinomeScan®
Outline: as §1

MEK1 = MEK1 (Homo sapiens, UniProt Q02750); conditions: MEK1, 1 μM; read-out: % control
Outline: as §1

MYLK2 = MYLK2 (Homo sapiens, UniProt Q9H1R3); conditions: MYLK2, 1 μM; read-out: % control
Outline: as §1

PDGFRA = PDGFRA (Homo sapiens, UniProt P16234); conditions: read-out: % control
Outline: as §1

PIP5K1A = molecular target: T4, PIP5K1A (Homo sapiens, UniProt Q99755); conditions: read-out: % control
T4 construct: purchased KinomeScan® (panel service)
Outline: as §1

TRKB = TRKB (Homo sapiens, UniProt Q16620); conditions: read-out: % control
Outline: as §1

p38-gamma = molecular target: T5, p38-gamma (Homo sapiens, UniProt P53778); conditions: read-out: % control
T5 sequence (P53778 1-367): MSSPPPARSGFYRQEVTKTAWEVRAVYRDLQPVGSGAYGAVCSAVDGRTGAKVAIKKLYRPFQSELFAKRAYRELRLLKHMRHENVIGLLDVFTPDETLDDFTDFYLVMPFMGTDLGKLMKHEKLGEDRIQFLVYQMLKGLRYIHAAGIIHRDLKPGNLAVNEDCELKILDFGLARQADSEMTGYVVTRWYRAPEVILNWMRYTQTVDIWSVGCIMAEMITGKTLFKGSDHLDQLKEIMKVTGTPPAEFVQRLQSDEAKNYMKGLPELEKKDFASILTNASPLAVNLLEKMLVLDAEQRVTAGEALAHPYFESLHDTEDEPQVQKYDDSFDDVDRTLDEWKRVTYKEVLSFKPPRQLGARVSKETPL
Outline: as §1

T4 sequence (Q99755 whole entry): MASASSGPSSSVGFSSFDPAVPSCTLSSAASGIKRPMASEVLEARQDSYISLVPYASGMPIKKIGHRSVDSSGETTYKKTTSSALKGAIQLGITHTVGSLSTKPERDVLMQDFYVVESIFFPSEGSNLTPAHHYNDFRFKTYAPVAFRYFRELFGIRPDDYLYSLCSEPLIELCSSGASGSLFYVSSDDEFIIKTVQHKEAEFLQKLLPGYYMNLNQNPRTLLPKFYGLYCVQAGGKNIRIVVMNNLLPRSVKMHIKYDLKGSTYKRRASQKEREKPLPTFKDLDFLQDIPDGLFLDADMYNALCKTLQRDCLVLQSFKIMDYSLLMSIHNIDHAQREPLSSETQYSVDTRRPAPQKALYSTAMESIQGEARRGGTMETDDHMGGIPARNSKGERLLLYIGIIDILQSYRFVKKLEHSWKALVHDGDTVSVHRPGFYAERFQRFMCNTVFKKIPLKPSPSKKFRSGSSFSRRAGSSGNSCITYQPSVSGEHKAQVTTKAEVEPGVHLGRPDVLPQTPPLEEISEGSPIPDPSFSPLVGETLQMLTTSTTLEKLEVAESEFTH
Chain of MYLK2 (Q9H1R3 whole entry): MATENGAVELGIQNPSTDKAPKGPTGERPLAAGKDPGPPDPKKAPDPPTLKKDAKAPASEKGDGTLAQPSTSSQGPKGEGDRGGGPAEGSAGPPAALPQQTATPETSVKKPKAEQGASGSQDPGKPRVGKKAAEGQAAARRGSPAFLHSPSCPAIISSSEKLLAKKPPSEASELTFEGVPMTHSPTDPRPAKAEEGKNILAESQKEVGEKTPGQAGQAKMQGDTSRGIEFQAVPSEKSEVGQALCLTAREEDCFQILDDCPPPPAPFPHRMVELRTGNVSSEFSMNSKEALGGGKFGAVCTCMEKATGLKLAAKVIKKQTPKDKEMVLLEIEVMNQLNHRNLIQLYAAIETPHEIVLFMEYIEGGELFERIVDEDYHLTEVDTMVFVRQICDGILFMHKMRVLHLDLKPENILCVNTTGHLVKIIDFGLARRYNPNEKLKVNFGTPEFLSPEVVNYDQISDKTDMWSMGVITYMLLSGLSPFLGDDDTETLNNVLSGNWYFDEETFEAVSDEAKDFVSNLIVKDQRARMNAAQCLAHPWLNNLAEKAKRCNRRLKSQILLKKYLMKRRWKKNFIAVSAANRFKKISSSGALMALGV
Chain of PDGFRA (P16234 24-1089): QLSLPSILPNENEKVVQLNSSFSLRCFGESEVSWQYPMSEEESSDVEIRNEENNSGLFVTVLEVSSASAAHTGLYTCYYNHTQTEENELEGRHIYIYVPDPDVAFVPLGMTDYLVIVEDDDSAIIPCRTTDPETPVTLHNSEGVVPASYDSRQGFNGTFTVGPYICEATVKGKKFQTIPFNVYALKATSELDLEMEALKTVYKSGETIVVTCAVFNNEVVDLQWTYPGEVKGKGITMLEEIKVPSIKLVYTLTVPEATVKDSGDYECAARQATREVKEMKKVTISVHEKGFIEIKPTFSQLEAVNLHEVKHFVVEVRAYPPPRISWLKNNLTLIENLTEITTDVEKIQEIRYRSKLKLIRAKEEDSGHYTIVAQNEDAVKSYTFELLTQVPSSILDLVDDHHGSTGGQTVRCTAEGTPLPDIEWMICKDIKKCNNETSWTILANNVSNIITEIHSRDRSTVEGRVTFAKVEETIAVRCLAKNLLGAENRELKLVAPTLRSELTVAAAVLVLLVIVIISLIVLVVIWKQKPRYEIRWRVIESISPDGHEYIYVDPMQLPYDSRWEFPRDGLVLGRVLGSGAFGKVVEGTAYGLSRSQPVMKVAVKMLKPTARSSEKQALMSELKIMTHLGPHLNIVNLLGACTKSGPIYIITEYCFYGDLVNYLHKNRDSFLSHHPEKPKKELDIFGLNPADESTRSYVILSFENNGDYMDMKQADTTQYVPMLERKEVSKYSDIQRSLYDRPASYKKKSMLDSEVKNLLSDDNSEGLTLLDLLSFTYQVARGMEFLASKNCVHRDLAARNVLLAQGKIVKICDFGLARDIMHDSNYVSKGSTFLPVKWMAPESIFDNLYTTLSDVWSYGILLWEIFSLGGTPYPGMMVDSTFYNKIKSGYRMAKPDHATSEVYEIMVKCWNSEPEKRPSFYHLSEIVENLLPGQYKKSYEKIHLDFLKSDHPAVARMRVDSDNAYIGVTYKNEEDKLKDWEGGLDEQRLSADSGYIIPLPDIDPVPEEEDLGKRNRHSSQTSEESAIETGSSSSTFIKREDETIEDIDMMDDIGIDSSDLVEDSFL
Chain of EGFR(L858R) (P00533 25-1210 L858R): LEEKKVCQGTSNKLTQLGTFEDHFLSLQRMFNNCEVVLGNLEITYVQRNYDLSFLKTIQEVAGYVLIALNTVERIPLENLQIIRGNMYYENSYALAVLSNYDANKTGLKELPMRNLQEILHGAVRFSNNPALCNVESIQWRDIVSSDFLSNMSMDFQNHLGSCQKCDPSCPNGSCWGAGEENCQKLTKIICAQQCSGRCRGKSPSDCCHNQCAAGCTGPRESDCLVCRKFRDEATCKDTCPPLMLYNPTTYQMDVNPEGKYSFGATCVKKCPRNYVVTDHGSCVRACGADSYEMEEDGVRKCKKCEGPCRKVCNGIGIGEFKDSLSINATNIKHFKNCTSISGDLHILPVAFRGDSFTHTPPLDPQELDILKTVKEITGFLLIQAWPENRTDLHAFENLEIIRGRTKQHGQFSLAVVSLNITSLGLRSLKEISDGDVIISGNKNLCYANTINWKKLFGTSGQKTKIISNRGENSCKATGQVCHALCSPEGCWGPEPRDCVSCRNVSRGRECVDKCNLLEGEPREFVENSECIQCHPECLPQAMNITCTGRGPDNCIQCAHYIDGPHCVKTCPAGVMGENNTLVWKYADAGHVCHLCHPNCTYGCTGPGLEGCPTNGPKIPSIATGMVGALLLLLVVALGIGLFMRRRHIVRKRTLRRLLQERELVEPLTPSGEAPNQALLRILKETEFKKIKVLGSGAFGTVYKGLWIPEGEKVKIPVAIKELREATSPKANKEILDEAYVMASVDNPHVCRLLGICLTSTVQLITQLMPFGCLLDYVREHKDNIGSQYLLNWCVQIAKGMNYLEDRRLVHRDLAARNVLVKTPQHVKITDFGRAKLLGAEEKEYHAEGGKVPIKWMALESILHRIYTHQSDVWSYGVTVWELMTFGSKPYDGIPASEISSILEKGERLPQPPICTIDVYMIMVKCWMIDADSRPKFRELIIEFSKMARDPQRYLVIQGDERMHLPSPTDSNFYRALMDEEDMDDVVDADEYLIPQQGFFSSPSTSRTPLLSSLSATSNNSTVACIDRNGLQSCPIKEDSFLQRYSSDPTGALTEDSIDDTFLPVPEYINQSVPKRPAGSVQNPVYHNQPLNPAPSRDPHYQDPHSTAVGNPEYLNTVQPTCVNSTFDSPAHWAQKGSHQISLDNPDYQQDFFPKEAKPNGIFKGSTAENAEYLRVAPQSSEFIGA
Chain of TRKB (Q16620 32-822): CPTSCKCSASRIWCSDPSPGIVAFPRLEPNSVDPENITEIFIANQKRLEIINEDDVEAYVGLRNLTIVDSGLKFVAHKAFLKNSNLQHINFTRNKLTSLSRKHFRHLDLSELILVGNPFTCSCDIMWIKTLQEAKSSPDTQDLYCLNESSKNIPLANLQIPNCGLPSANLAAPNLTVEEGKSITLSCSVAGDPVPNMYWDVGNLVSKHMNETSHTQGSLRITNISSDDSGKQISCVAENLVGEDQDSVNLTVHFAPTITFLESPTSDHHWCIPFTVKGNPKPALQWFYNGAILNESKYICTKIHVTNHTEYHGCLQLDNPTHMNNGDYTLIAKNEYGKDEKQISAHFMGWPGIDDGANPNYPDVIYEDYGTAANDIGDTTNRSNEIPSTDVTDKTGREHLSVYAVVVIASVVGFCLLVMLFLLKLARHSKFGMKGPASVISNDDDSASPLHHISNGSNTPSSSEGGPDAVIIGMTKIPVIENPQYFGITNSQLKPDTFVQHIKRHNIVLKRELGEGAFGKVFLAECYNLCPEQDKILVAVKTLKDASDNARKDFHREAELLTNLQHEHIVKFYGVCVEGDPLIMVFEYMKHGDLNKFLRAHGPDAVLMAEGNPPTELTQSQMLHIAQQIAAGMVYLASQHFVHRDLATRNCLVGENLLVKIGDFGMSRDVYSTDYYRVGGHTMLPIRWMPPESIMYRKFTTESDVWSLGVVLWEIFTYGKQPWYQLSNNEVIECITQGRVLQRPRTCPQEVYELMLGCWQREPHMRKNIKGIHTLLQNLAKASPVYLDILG
Chain of MEK1 (Q02750 whole entry): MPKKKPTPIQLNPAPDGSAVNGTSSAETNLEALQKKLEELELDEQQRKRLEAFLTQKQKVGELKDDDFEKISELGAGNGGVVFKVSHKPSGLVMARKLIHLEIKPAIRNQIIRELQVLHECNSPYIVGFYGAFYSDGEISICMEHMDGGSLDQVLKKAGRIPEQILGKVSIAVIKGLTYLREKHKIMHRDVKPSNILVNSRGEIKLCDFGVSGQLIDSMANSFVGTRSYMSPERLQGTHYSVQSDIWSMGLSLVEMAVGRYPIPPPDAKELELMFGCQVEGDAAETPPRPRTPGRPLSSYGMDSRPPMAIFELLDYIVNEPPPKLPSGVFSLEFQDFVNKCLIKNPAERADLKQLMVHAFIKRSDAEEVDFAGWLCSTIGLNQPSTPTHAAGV
T3 sequence (P45983 whole entry): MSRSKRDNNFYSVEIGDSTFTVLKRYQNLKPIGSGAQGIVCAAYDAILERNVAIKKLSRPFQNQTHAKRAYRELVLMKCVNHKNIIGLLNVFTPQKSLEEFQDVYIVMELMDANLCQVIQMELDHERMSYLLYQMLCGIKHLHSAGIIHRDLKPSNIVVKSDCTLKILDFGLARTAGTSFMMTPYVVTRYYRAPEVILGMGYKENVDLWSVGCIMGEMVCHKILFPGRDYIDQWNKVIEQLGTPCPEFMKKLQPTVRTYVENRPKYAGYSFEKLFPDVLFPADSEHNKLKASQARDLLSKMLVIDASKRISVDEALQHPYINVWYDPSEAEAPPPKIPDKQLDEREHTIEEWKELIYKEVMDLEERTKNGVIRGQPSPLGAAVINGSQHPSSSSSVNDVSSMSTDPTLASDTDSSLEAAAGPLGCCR

With CNc1c(-c2ccc(C(=O)N3CCC(N4CCOCC4)CC3)cc2)cnc2[nH]cc(Cl)c12 [Compound 96, (4-(3-chloro-4-(methylamino)-1H-pyrrolo[2,3-b]pyridin-5-yl)phenyl)(4-morpholinopiperidin-1-yl)methanone] the remaining binding at 1 µM (AURKA) was 36%, the remaining binding at 1 µM (DMPK2) was 91% and the remaining binding at 1 µM (EGFR(L858R)) was 100%. It also gave a remaining binding at 1 µM (EGFR(L861Q)) of 90%, a remaining binding at 1 µM (EPHB2) of 97% and a remaining binding at 1 µM (FES) of 95%. For the same compound, the remaining binding at 1 µM (JNK1) was 0.05%, the remaining binding at 1 µM (MEK1) was 12% and the remaining binding at 1 µM (MYLK2) was 51%. It also gave a remaining binding at 1 µM (PDGFRA) of 45%, a remaining binding at 1 µM (PIP5K1A) of 16% and a remaining binding at 1 µM (TRKB) of 48%. For the same compound, the remaining binding at 1 µM (p38-gamma) was 92%.
With O=C(c1ccc(-c2cnc3[nH]cc(Cl)c3c2NC2CCCC2)cc1)N1CCC(N2CCOCC2)CC1 [Compound 101, (4-(3-chloro-4-(cyclopentylamino)-1H-pyrrolo[2,3-b]pyridin-5-yl)phenyl)(4-morpholinopiperidin-1-yl)methanone] the remaining binding at 1 µM (AURKA) was 82%, the remaining binding at 1 µM (DMPK2) was 100% and the remaining binding at 1 µM (EGFR(L858R)) was 96%. The remaining binding at 1 µM (EGFR(L861Q)) was 89%, the remaining binding at 1 µM (EPHB2) was 97% and the remaining binding at 1 µM (FES) was 72%. For the same compound, the remaining binding at 1 µM (JNK1) was 7.1%, the remaining binding at 1 µM (MEK1) was 94% and the remaining binding at 1 µM (MYLK2) was 94%. For the same compound, the remaining binding at 1 µM (PDGFRA) was 92%, the remaining binding at 1 µM (PIP5K1A) was 12% and the remaining binding at 1 µM (TRKB) was 100%. For the same compound, the remaining binding at 1 µM (p38-gamma) was 79%.
With CNc1c(-c2cnn([C@H]3CCN(C(C)=O)C[C@@H]3F)c2)cnc2[nH]cc(Cl)c12 [Compound 77, 1-((3S,4S)-4-(4-(3-chloro-4-(methylamino)-1H-pyrrolo[2,3-b]pyridin-5-yl)-1H-pyrazol-1-yl)-3-fluoropiperidin-1-yl)ethan-1-one] the remaining binding at 1 µM (AURKA) was 35%, the remaining binding at 1 µM (DMPK2) was 80% and the remaining binding at 1 µM (EGFR(L858R)) was 100%. The remaining binding at 1 µM (EGFR(L861Q)) was 96%, the remaining binding at 1 µM (EPHB2) was 98% and the remaining binding at 1 µM (FES) was 95%. The remaining binding at 1 µM (JNK1) was 1.1%, the remaining binding at 1 µM (MEK1) was 29% and the remaining binding at 1 µM (MYLK2) was 79%. For the same compound, the remaining binding at 1 µM (PDGFRA) was 11%, the remaining binding at 1 µM (PIP5K1A) was 7.7% and the remaining binding at 1 µM (TRKB) was 23%. It also gave a remaining binding at 1 µM (p38-gamma) of 97%.
